Measurements taken from ChEMBL document CHEMBL5143655, “Synthesis and biological evaluation of 1,2,4-triazole derivatives as potential Nrf2 activators for the treatment of cerebral ischemic injury” (Eur J Med Chem, 2022).
pIC50: −log10 of the molar value. The source made the active and inactive calls. The calls are words filed in the database; no cut-off is given here.

How the values were obtained:
[1] = Cytotoxicity against human HaCaT cells assessed as reduction in cell viability by MTT assay; assay type: toxicity, cell-based
[2] = Cytotoxicity against rat PC-12 cells assessed as reduction in cell viability by MTT assay; assay type: toxicity, cell-based
[3] = test system: PC-12; assay: Neuroprotective activity against SNP induced rat PC-12 cells assessed as increase in cell viability at 10 uM preincubated for 2 hrs followed by SNP stimulation for 24 hrs by MTT assay relative to control; assay type: functional
[4] = test system: PC-12; assay: Neuroprotective activity against SNP induced rat PC-12 cells assessed as increase in cell viability at 5 uM preincubated for 2 hrs followed by SNP stimulation for 24 hrs by MTT assay relative to control; assay type: functional
[5] = Plasma protein binding in Sprague-Dawley rat plasma at 10 uM incubated for 6 hrs by LC-MS/MS based equilibrium dialysis method; assay type: ADME, cell-free; settings: read-out: PPB (converted)
[6] = Metabolic stability in human plasma assessed as half life at 200 uM by LC-MS/MS analysis relative to control; assay type: ADME, cell-free
[7] = Tmax in Sprague-Dawley rat at 5 mg/kg, ip measured upto 24 hrs by LC-MS/MS analysis; assay type: ADME, organism-based; settings: in vivo
[8] = AUC (0 to infinity) in Sprague-Dawley rat at 5 mg/kg, iv measured upto 24 hrs by LC-MS/MS analysis; assay type: ADME, organism-based; design: dose 5 mg/kg, time < 24 hrs, route iv; settings: in vivo
[9] = Half life in Sprague-Dawley rat at 5 mg/kg, ip measured upto 24 hrs by LC-MS/MS analysis; assay type: ADME, organism-based; settings: in vivo
[10] = Clearence in Sprague-Dawley rat at 5 mg/kg, ip measured upto 24 hrs by LC-MS/MS analysis; assay type: ADME, organism-based; settings: in vivo
[11] = test system: Rattus norvegicus; assay: (§1) Neuroprotective activity in Sprague-Dawley rat model of middle cerebral artery occlusion-induced ischemia-reperfusion injury assessed as decrease in neurological score at 3 mg/kg, ip preincubated for 1 hrs followed by MCAO operation and further incubated with compound for 4 hrs after reperfusion; assay type: functional; settings: time 5 hrs
[12] = test system: Rattus norvegicus; assay: Neuroprotective activity in Sprague-Dawley rat model of middle cerebral artery occlusion-induced ischemia-reperfusion injury assessed as attenuation of behavioral deficit at 10 mg/kg, ip preincubated for 1 hrs followed by MCAO operation and further incubated with compound for 4 hrs after reperfusion; assay type: functional; settings: time 5 hrs
[13] = test system: Rattus norvegicus; assay: as §1, with “decrease in cerebral infarct volume at 3” for “decrease in neurological score at 3”, “after reperfusion by TTC staining based assay” for “after reperfusion”; assay type: functional; design: scale not given: the % may be the effect or the level left; settings: time 5 hrs
[14] = test system: Rattus norvegicus; assay: Neuroprotective activity in Sprague-Dawley rat model of middle cerebral artery occlusion-induced ischemia reperfusion injury assessed as increase in serum SOD level at 3 to 30 mg/kg, ip preincubated for 1 hrs followed by MCAO operation and further incubated with compound for 4 hrs after reperfusion; assay type: functional, organism-based; settings: dose 3-30 mg/kg, time 5.0 hrs
[15] = test system: PC-12; assay: Neuroprotective activity against SNP-induced apoptotic rat PC-12 cells assessed as restoration of cell number at 10 uM preincubated for 2 hrs followed by SNP stimulation for 24 hrs by Hoechst 33258 staining based fluorescence microscopic analysis; assay type: functional
[16] = test system: PC-12; assay: Neuroprotective activity against SNP-induced oxidative stress in rat PC-12 cells assessed as inhibition of ROS accumulation at 10 uM preincubated for 2 hrs followed by SNP stimulation for 24 hrs by DCFH-DA staining based fluorescence microscopic analysis; assay type: functional, cell-based
[17] = molecular target: T1, Nuclear factor erythroid 2-related factor 2 (Rattus norvegicus) (UniProt O54968); assay: Activation of Nrf2 pathway in rat PC-12 cells assessed as increase in NQO1 level at 2.5 to 10 uM measured after 3 hrs by Western blot analysis; assay type: cell-based; settings: filed as activator, dose 2.5-10 µM
T1 sequence (whole entry): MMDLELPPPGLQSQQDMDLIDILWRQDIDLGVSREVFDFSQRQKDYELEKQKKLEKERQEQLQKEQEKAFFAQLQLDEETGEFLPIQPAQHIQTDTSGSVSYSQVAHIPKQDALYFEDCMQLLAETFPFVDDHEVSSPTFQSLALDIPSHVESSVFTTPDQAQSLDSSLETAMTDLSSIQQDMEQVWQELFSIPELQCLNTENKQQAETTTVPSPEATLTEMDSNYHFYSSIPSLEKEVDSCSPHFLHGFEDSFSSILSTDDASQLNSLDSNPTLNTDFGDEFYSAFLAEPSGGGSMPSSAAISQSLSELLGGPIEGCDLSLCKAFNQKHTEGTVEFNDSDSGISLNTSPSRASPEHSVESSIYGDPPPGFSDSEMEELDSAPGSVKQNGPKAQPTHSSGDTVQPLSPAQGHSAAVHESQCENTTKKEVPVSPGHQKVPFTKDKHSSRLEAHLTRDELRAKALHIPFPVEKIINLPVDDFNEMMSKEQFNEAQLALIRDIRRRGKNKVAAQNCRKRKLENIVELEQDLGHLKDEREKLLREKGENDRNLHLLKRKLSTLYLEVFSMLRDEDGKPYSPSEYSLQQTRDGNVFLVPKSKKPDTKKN

[18] = molecular target: T1, Nuclear factor erythroid 2-related factor 2 (Rattus norvegicus); assay: Activation of Nrf2 pathway in rat PC-12 cells assessed as decrease in Nrf2 accumulation in cytoplasm at 0.5 to 10 uM measured after 3 hrs by Western blot analysis; assay type: cell-based; settings: filed as activator, dose 0.5-10 µM

Cc1cc(C)cc(-n2nc(-c3ccc(C(F)(F)F)cc3O)nc2-c2ccccc2O)c1
pIC50 [1]: 3.90 | pIC50 [2]: 3.58 | Activity [3]: 105.13% | Activity [4]: 101.59% | fraction unbound at 6 h, 10 µM [5]: 0.0008 | half-life at 200 µM [6]: > 8.82 h | Tmax [7]: 2 h | AUC(0-inf) [8]: 10200 ng·h/mL | half-life [9]: 12.8 h | CL [10]: 0.0017 (mg/kg)/(ng/ml)/hr | Activity [11]: 1.87 | Activity [12]: 1.6 | Activity [13]: 16.37% | Activity [14]: Active | Activity [15]: Active | Activity [16]: Active | Activity [17]: Active | Activity [18]: Active
